Patent publication US20120016009A1, “Optimized Methods For Delivery Of DSRNA Targeting The PCSK9 Gene” (priority 2008, published 2012)
In the oligonucleotide strings, read from the 5' end, every base follows the letter of its sugar. An asterisk marks phosphorothioate; unmarked linkages are phosphodiester. Other units and linkages are bracketed, terminal groups are in braces. A string of capitals states the bases alone. d = 2'-deoxy (DNA); m = 2'-O-methyl; r = 2'-OH (RNA)

Tested on: PCSK9 mRNA
Test: PCSK9 siRNA screening in HepG2 cells (lipofectamine 2000 transfection, PCSK9 mRNA by Quantigene, normalized to GAP-DH)
Assay type: cell-based, human
Conditions: for Mean percent remaining mRNA transcript at siRNA concentration/in cell type 3 nM/HepG2: 3 nM siRNA; for Mean percent remaining mRNA transcript at siRNA concentration/in cell type 30 nM/HepG2: 30 nM siRNA; for Mean percent remaining mRNA transcript at siRNA concentration/in cell type 100 nM/HepG2: 100 nM siRNA
Method in brief: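 PCSK9 silencing was assessed in HepG2 cells by lipofectamine 2000 siRNA transfection in 96-well plates. Twenty-four hours later, lysates were analyzed with the Quantigene Explore Kit, with PCSK9 signal normalized to GAP-DH. Eight datapoints were collected per siRNA, and remaining transcript was expressed as a percentage of cells treated with an unrelated control siRNA duplex.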

Substance: AD-9629: PCSK9 siRNA (sense rUrCrUrGrGrGrUrUrUrUrGrUrArGrCrArUrUrUdT*dT; antisense rArArArUrGrCrUrArCrArArArArCrCrCrArGrAdT*dT)
- Mean percent remaining mRNA transcript at siRNA concentration/in cell type 3 nM/HepG2: 24%
- Mean percent remaining mRNA transcript at siRNA concentration/in cell type 30 nM/HepG2: 23%

Substance: AD-9630: PCSK9 siRNA (sense rGrGrGrCrArGrGrGrUrCrArUrGrGrUrCrArCrCdT*dT; antisense rGrGrUrGrArCrCrArUrGrArCrCrCrUrGrCrCrCdT*dT)
- Mean percent remaining mRNA transcript at siRNA concentration/in cell type 30 nM/HepG2: 82%

Substance: AD-9631: PCSK9 siRNA (sense rCrUrCrUrGrCrCrArArArGrArUrGrUrCrArUrCdT*dT; antisense rGrArUrGrArCrArUrCrUrUrUrGrGrCrArGrArGdT*dT)
- Mean percent remaining mRNA transcript at siRNA concentration/in cell type 30 nM/HepG2: 80%

Substance: AD-9632: PCSK9 siRNA (sense rCrArArCrUrUrUrGrGrCrCrGrCrUrGrUrGrUrGdT*dT; antisense rCrArCrArCrArGrCrGrGrCrCrArArArGrUrUrGdT*dT)
- Mean percent remaining mRNA transcript at siRNA concentration/in cell type 30 nM/HepG2: 34%

Substance: AD-9633: PCSK9 siRNA (sense rUrGrGrUrCrArCrCrGrCrUrGrCrCrGrGrCrArAdT*dT; antisense rUrUrGrCrCrGrGrCrArGrCrGrGrUrGrArCrCrAdT*dT)
- Mean percent remaining mRNA transcript at siRNA concentration/in cell type 30 nM/HepG2: 75%
- Mean percent remaining mRNA transcript at siRNA concentration/in cell type 100 nM/HepG2: 56%

Substance: AD-9634: PCSK9 siRNA (sense rCrUrCrUrGrUrUrGrCrCrUrUrUrUrUrArCrArGdT*dT; antisense rCrUrGrUrArArArArArGrGrCrArArCrArGrArGdT*dT)
- Mean percent remaining mRNA transcript at siRNA concentration/in cell type 3 nM/HepG2: 30%
- Mean percent remaining mRNA transcript at siRNA concentration/in cell type 30 nM/HepG2: 29%

Substance: AD-9635: PCSK9 siRNA (sense rGrUrCrUrGrCrCrGrArGrCrCrGrGrArGrCrUrCdT*dT; antisense rGrArGrCrUrCrCrGrGrCrUrCrGrGrCrArGrArCdT*dT)
- Mean percent remaining mRNA transcript at siRNA concentration/in cell type 30 nM/HepG2: 90%
- Mean percent remaining mRNA transcript at siRNA concentration/in cell type 100 nM/HepG2: 73%

Substance: AD-9636: PCSK9 siRNA (sense rCrArUrArCrArGrArGrUrGrArCrCrArCrCrGrGdT*dT; antisense rCrCrGrGrUrGrGrUrCrArCrUrCrUrGrUrArUrGdT*dT)
- IC50: 2.1 nM
- Mean percent remaining mRNA transcript at siRNA concentration/in cell type 3 nM/HepG2: 41%
- Mean percent remaining mRNA transcript at siRNA concentration/in cell type 30 nM/HepG2: 42%

Substance: AD-9637: PCSK9 siRNA (sense rGrArGrGrGrCrArGrGrGrUrCrArUrGrGrUrCrAdT*dT; antisense rUrGrArCrCrArUrGrArCrCrCrUrGrCrCrCrUrCdT*dT)
- Mean percent remaining mRNA transcript at siRNA concentration/in cell type 30 nM/HepG2: 83%
- Mean percent remaining mRNA transcript at siRNA concentration/in cell type 100 nM/HepG2: 56%

Substance: AD-9638: PCSK9 siRNA (sense rCrUrGrGrArGrUrUrUrArUrUrCrGrGrArArArAdT*dT; antisense rUrUrUrUrCrCrGrArArUrArArArCrUrCrCrArGdT*dT)
- Mean percent remaining mRNA transcript at siRNA concentration/in cell type 30 nM/HepG2: 101%

Substance: AD-9639: PCSK9 siRNA (sense rGrUrGrCrUrGrArGrGrCrCrArCrGrArGrGrUrCdT*dT; antisense rGrArCrCrUrCrGrUrGrGrCrCrUrCrArGrCrArCdT*dT)
- Mean percent remaining mRNA transcript at siRNA concentration/in cell type 3 nM/HepG2: 35%
- Mean percent remaining mRNA transcript at siRNA concentration/in cell type 30 nM/HepG2: 30%

Substance: AD-9640: PCSK9 siRNA (sense rGmUrAmCmCrGrGrGmCrGrGrAmUrGrArAmUrAmCdT*dT; antisense rGmUrArUrUmCrArUrCrCrGrCrCrCrGrGmUrArCdT*dT)
- Mean percent remaining mRNA transcript at siRNA concentration/in cell type 30 nM/HepG2: 89%

Substance: AD-9641: PCSK9 siRNA (sense rGrGmUrAmCmCrGrGrGmCrGrGrAmUrGrArAmUrAdT*dT; antisense mUrArUrUmCrArUrCrCrGrCrCrCrGrGmUrArCrCdT*dT)
- Mean percent remaining mRNA transcript at siRNA concentration/in cell type 30 nM/HepG2: 92%

Substance: AD-9642: PCSK9 siRNA (sense mUrGmUrAmUmCmUmCmCmUrArGrAmCrAmCmCrArGdT*dT; antisense rCrUrGrGrUrGrUrCmUrArGrGrArGrAmUrAmCrAdT*dT)
- Mean percent remaining mRNA transcript at siRNA concentration/in cell type 30 nM/HepG2: 105%

Substance: AD-9643: PCSK9 siRNA (sense GGAGGuGuAucuccuAGAcTsT; antisense GUCuAGGAGAuAcACCUCCTsT; as printed in the source, key not given here)
- Mean percent remaining mRNA transcript at siRNA concentration/in cell type 30 nM/HepG2: 40%

Substance: AD-9645: PCSK9 siRNA (sense mCmCmCrArGmCmCrArGrGrAmUmUmCmCrGmCrGmCdT*dT; antisense rGrCrGrCrGrGrArArUrCrCrUrGrGrCrUrGrGrGdT*dT)
- Mean percent remaining mRNA transcript at siRNA concentration/in cell type 30 nM/HepG2: 66%

Substance: AD-9646: PCSK9 siRNA (sense mCmUrGrGmUrGmCmUrArGmCmCmUmUrGmCrGmUmUdT*dT; antisense rArArCrGmCrArArGrGrCmUrArGmCrArCmCrArGdT*dT)
- Mean percent remaining mRNA transcript at siRNA concentration/in cell type 3 nM/HepG2: 108%
- Mean percent remaining mRNA transcript at siRNA concentration/in cell type 30 nM/HepG2: 97%

Substance: AD-9647: PCSK9 siRNA (sense mCmUmCmCmUrArGrAmCrAmCmCrArGmCrAmUrAmCdT*dT; antisense rGmUrArUrGrCrUrGrGrUrGrUrCmUrArGrGrArGdT*dT)
- Mean percent remaining mRNA transcript at siRNA concentration/in cell type 30 nM/HepG2: 62%

Substance: AD-9648: PCSK9 siRNA (sense rArArGrGrArGmCrAmUrGrGrArAmUmCmCmCrGrGdT*dT; antisense rCrCrGrGrGrArUrUrCmCrArUrGrCrUrCrCrUrUdT*dT)
- Mean percent remaining mRNA transcript at siRNA concentration/in cell type 30 nM/HepG2: 78%

Substance: AD-9649: PCSK9 siRNA (sense mCrArGmCmCrArGrGrAmUmUmCmCrGmCrGmCrGmCdT*dT; antisense rGrCrGrCrGrCrGrGrArArUrCrCrUrGrGrCrUrGdT*dT)
- Mean percent remaining mRNA transcript at siRNA concentration/in cell type 30 nM/HepG2: 60%

Substance: AD-9650: PCSK9 siRNA (sense rGmCmUrGrGmUrGmCmUrArGmCmCmUmUrGmCrGmUdT*dT; antisense rArCrGmCrArArGrGrCmUrArGmCrArCmCrArGrCdT*dT)
- Mean percent remaining mRNA transcript at siRNA concentration/in cell type 3 nM/HepG2: 90%
- Mean percent remaining mRNA transcript at siRNA concentration/in cell type 30 nM/HepG2: 91%

Substance: AD-9651: PCSK9 siRNA (sense rGrGrArGmUmUmUrAmUmUmCrGrGrArArArArGmCdT*dT; antisense rGrCrUrUrUrUrCrCrGrArAmUrArArArCrUrCrCdT*dT)
- Mean percent remaining mRNA transcript at siRNA concentration/in cell type 30 nM/HepG2: 58%

Substance: AD-9652: PCSK9 siRNA (sense mUmCmCmCrArGmCmCrArGrGrAmUmUmCmCrGmCrGdT*dT; antisense rCrGrCrGrGrArArUrCrCrUrGrGrCrUrGrGrGrAdT*dT)
- Mean percent remaining mRNA transcript at siRNA concentration/in cell type 30 nM/HepG2: 97%

Substance: AD-9653: PCSK9 siRNA (sense rGmCmCrArAmCmCmCrGmCmUmCmCrAmCmUrAmCmCdT*dT; antisense rGrGmUrArGrUrGrGrArGrCrGrGrGrUrUrGrGrCdT*dT)
- Mean percent remaining mRNA transcript at siRNA concentration/in cell type 30 nM/HepG2: 86%

Substance: AD-9654: PCSK9 siRNA (sense mCrGrGmUrAmCmCrGrGrGmCrGrGrAmUrGrArAmUdT*dT; antisense rArUrUmCrArUrCrCrGrCrCrCrGrGmUrArCrCrGdT*dT)
- Mean percent remaining mRNA transcript at siRNA concentration/in cell type 30 nM/HepG2: 107%

Substance: AD-9655: PCSK9 siRNA (sense rGrGrGrAmUrAmCmCmUmCrAmCmCrArArGrAmUmCdT*dT; antisense rGrArUrCrUrUrGrGrUrGrArGrGmUrArUrCrCrCdT*dT)
- Mean percent remaining mRNA transcript at siRNA concentration/in cell type 30 nM/HepG2: 140%

Substance: AD-9656: PCSK9 siRNA (sense rAmCmCrGrGrGmCrGrGrAmUrGrArAmUrAmCmCrAdT*dT; antisense rUrGrGmUrArUrUmCrArUrCrCrGrCrCrCrGrGrUdT*dT)
- Mean percent remaining mRNA transcript at siRNA concentration/in cell type 30 nM/HepG2: 77%

Substance: AD-9659: PCSK9 siRNA (sense rGrAmCmCrAmCmCrGrGrGrArArAmUmCrGrArGrGdT*dT; antisense rCrCrUrCrGrArUrUrUrCrCrCrGrGrUrGrGrUrCdT*dT)
- Mean percent remaining mRNA transcript at siRNA concentration/in cell type 30 nM/HepG2: 88%

Substance: AD-9660: PCSK9 siRNA (sense rGrGrAmCrGrAmUrGmCmCmUrGmCmCmUmCmUrAmCdT*dT; antisense rGmUrArGrArGrGmCrArGrGmCrArUrCrGrUrCrCdT*dT)
- Mean percent remaining mRNA transcript at siRNA concentration/in cell type 3 nM/HepG2: 79%
- Mean percent remaining mRNA transcript at siRNA concentration/in cell type 30 nM/HepG2: 89%

Substance: AD-9661: PCSK9 siRNA (sense rGrArGmUrGrAmCmCrAmCmCrGrGrGrArArAmUmCdT*dT; antisense rGrArUrUrUrCrCrCrGrGrUrGrGrUmCrArCrUrCdT*dT)
- Mean percent remaining mRNA transcript at siRNA concentration/in cell type 30 nM/HepG2: 83%

Substance: AD-9662: PCSK9 siRNA (sense mUmUrAmUmUmCrGrGrArArArArGmCmCrArGmCmUdT*dT; antisense rArGrCrUrGrGrCrUrUrUrUrCrCrGrArAmUrArAdT*dT)
- Mean percent remaining mRNA transcript at siRNA concentration/in cell type 30 nM/HepG2: 81%

Substance: AD-9663: PCSK9 siRNA (sense rAmCrGrGmUrAmCmCrGrGrGmCrGrGrAmUrGrArAdT*dT; antisense rUrUmCrArUrCrCrGrCrCrCrGrGmUrArCrCrGrUdT*dT)
- Mean percent remaining mRNA transcript at siRNA concentration/in cell type 30 nM/HepG2: 102%

Substance: AD-9664: PCSK9 siRNA (sense mCmCrGrGrGmCrGrGrAmUrGrArAmUrAmCmCrArGdT*dT; antisense rCrUrGrGmUrArUrUmCrArUrCrCrGrCrCrCrGrGdT*dT)
- Mean percent remaining mRNA transcript at siRNA concentration/in cell type 30 nM/HepG2: 53%

Substance: AD-9665: PCSK9 siRNA (sense GGuGGAGGuGuAucuccuATsT; antisense uAGGAGAuAcACCUCcACCTsT; as printed in the source, key not given here)
- Mean percent remaining mRNA transcript at siRNA concentration/in cell type 30 nM/HepG2: 83%

Substance: AD-9666: PCSK9 siRNA (sense rArGrArGmUrGrAmCmCrAmCmCrGrGrGrArArAmUdT*dT; antisense rArUrUrUrCrCrCrGrGrUrGrGrUmCrArCrUrCrUdT*dT)
- Mean percent remaining mRNA transcript at siRNA concentration/in cell type 30 nM/HepG2: 81%

Substance: AD-9667: PCSK9 siRNA (sense rGrGmUrGrArGrGrGmUrGmUmCmUrAmCrGmCmCrAdT*dT; antisense rUrGrGrCrGmUrArGrAmCrArCrCrCrUmCrArCrCdT*dT)
- Mean percent remaining mRNA transcript at siRNA concentration/in cell type 30 nM/HepG2: 73%

Substance: AD-9668: PCSK9 siRNA (sense rAmUmCrGrArGrGrGmCrArGrGrGmUmCrAmUrGrGdT*dT; antisense rCmCrArUrGrArCrCrCrUrGrCrCrCrUrCrGrArUdT*dT)
- Mean percent remaining mRNA transcript at siRNA concentration/in cell type 30 nM/HepG2: 92%
